Test: Anticancer activity against leukemia cells
Format: functional
Conditions: Homo sapiens, Leukemia cell

Compound | GI50
Cc1ccc2c(c1)[n+]([O-])c(C(=O)c1ccco1)c(C(F)(F)F)[n+]2[O-] | 260 nM
O=C(c1ccc2ccccc2c1)c1c(C(F)(F)F)[n+]([O-])c2cc(Cl)c(Cl)cc2[n+]1[O-] | 1580 nM
O=C(c1ccco1)c1c(C(F)(F)F)[n+]([O-])c2ccccc2[n+]1[O-] | 70 nM
O=C(c1ccccc1)c1c(C(F)(F)F)[n+]([O-])c2cc(C(F)(F)F)ccc2[n+]1[O-] | 770 nM
O=C(c1ccccc1)c1c(C(F)(F)F)[n+]([O-])c2ccc(F)cc2[n+]1[O-] | 230 nM
O=C(c1cccs1)c1c(C(F)(F)F)[n+]([O-])c2ccc(F)cc2[n+]1[O-] | 270 nM
O=C(c1ccco1)c1c(C(F)(F)F)nc2ccc(C(F)(F)F)cc2[n+]1[O-] | 88100 nM
O=C(c1ccco1)c1c(C(F)(F)F)[n+]([O-])c2cc(Cl)c(Cl)cc2[n+]1[O-] | 270 nM

Test: Anticancer activity against nonsmall lung cancer cells
Format: functional
Conditions: Homo sapiens, Cancer cell lines

Compound | GI50
Cc1ccc2c(c1)[n+]([O-])c(C(=O)c1ccco1)c(C(F)(F)F)[n+]2[O-] | 470 nM
O=C(c1ccc2ccccc2c1)c1c(C(F)(F)F)[n+]([O-])c2cc(Cl)c(Cl)cc2[n+]1[O-] | 1700 nM
O=C(c1ccco1)c1c(C(F)(F)F)[n+]([O-])c2ccccc2[n+]1[O-] | 350 nM
O=C(c1ccccc1)c1c(C(F)(F)F)[n+]([O-])c2cc(C(F)(F)F)ccc2[n+]1[O-] | 1660 nM
O=C(c1ccccc1)c1c(C(F)(F)F)[n+]([O-])c2ccc(F)cc2[n+]1[O-] | 800 nM
O=C(c1cccs1)c1c(C(F)(F)F)[n+]([O-])c2ccc(F)cc2[n+]1[O-] | 1680 nM
O=C(c1ccco1)c1c(C(F)(F)F)nc2ccc(C(F)(F)F)cc2[n+]1[O-] | 39400 nM
O=C(c1ccco1)c1c(C(F)(F)F)[n+]([O-])c2cc(Cl)c(Cl)cc2[n+]1[O-] | 280 nM

Test: Anticancer activity against colon cancer cells
Format: functional
Conditions: Homo sapiens, Cancer cell lines

Compound | GI50
Cc1ccc2c(c1)[n+]([O-])c(C(=O)c1ccco1)c(C(F)(F)F)[n+]2[O-] | 1170 nM
O=C(c1ccc2ccccc2c1)c1c(C(F)(F)F)[n+]([O-])c2cc(Cl)c(Cl)cc2[n+]1[O-] | 1550 nM
O=C(c1ccco1)c1c(C(F)(F)F)[n+]([O-])c2ccccc2[n+]1[O-] | 510 nM
O=C(c1ccccc1)c1c(C(F)(F)F)[n+]([O-])c2cc(C(F)(F)F)ccc2[n+]1[O-] | 1710 nM
O=C(c1ccccc1)c1c(C(F)(F)F)[n+]([O-])c2ccc(F)cc2[n+]1[O-] | 540 nM
O=C(c1cccs1)c1c(C(F)(F)F)[n+]([O-])c2ccc(F)cc2[n+]1[O-] | 920 nM
O=C(c1ccco1)c1c(C(F)(F)F)nc2ccc(C(F)(F)F)cc2[n+]1[O-] | 49800 nM
O=C(c1ccco1)c1c(C(F)(F)F)[n+]([O-])c2cc(Cl)c(Cl)cc2[n+]1[O-] | 500 nM

Test: Anticancer activity against CNS cancer cells
Format: functional
Conditions: Homo sapiens, Cancer cell lines

Compound | GI50
Cc1ccc2c(c1)[n+]([O-])c(C(=O)c1ccco1)c(C(F)(F)F)[n+]2[O-] | 740 nM
O=C(c1ccc2ccccc2c1)c1c(C(F)(F)F)[n+]([O-])c2cc(Cl)c(Cl)cc2[n+]1[O-] | 1630 nM
O=C(c1ccco1)c1c(C(F)(F)F)[n+]([O-])c2ccccc2[n+]1[O-] | 400 nM
O=C(c1ccccc1)c1c(C(F)(F)F)[n+]([O-])c2cc(C(F)(F)F)ccc2[n+]1[O-] | 1710 nM
O=C(c1ccccc1)c1c(C(F)(F)F)[n+]([O-])c2ccc(F)cc2[n+]1[O-] | 1450 nM
O=C(c1cccs1)c1c(C(F)(F)F)[n+]([O-])c2ccc(F)cc2[n+]1[O-] | 1630 nM
O=C(c1ccco1)c1c(C(F)(F)F)nc2ccc(C(F)(F)F)cc2[n+]1[O-] | 25300 nM
O=C(c1ccco1)c1c(C(F)(F)F)[n+]([O-])c2cc(Cl)c(Cl)cc2[n+]1[O-] | 790 nM

Test: Anticancer activity against melanoma cells
Format: functional
Conditions: Homo sapiens, Melanoma cell

Compound | GI50
Cc1ccc2c(c1)[n+]([O-])c(C(=O)c1ccco1)c(C(F)(F)F)[n+]2[O-] | 880 nM
O=C(c1ccc2ccccc2c1)c1c(C(F)(F)F)[n+]([O-])c2cc(Cl)c(Cl)cc2[n+]1[O-] | 1570 nM
O=C(c1ccco1)c1c(C(F)(F)F)[n+]([O-])c2ccccc2[n+]1[O-] | 670 nM
O=C(c1ccccc1)c1c(C(F)(F)F)[n+]([O-])c2cc(C(F)(F)F)ccc2[n+]1[O-] | 1230 nM
O=C(c1ccccc1)c1c(C(F)(F)F)[n+]([O-])c2ccc(F)cc2[n+]1[O-] | 950 nM
O=C(c1cccs1)c1c(C(F)(F)F)[n+]([O-])c2ccc(F)cc2[n+]1[O-] | 1510 nM
O=C(c1ccco1)c1c(C(F)(F)F)nc2ccc(C(F)(F)F)cc2[n+]1[O-] | 31500 nM
O=C(c1ccco1)c1c(C(F)(F)F)[n+]([O-])c2cc(Cl)c(Cl)cc2[n+]1[O-] | 1570 nM

Test: Anticancer activity against ovarian cancer cells
Format: functional
Conditions: Homo sapiens, Cancer cell lines

Compound | GI50
Cc1ccc2c(c1)[n+]([O-])c(C(=O)c1ccco1)c(C(F)(F)F)[n+]2[O-] | 850 nM
O=C(c1ccc2ccccc2c1)c1c(C(F)(F)F)[n+]([O-])c2cc(Cl)c(Cl)cc2[n+]1[O-] | 1510 nM
O=C(c1ccco1)c1c(C(F)(F)F)[n+]([O-])c2ccccc2[n+]1[O-] | 1450 nM
O=C(c1ccccc1)c1c(C(F)(F)F)[n+]([O-])c2cc(C(F)(F)F)ccc2[n+]1[O-] | 1180 nM
O=C(c1ccccc1)c1c(C(F)(F)F)[n+]([O-])c2ccc(F)cc2[n+]1[O-] | 1340 nM
O=C(c1cccs1)c1c(C(F)(F)F)[n+]([O-])c2ccc(F)cc2[n+]1[O-] | 1170 nM
O=C(c1ccco1)c1c(C(F)(F)F)nc2ccc(C(F)(F)F)cc2[n+]1[O-] | 29300 nM
O=C(c1ccco1)c1c(C(F)(F)F)[n+]([O-])c2cc(Cl)c(Cl)cc2[n+]1[O-] | 1650 nM

Test: Anticancer activity against renal cancer cells
Format: functional
Conditions: Homo sapiens, Cancer cell lines

Compound | GI50
Cc1ccc2c(c1)[n+]([O-])c(C(=O)c1ccco1)c(C(F)(F)F)[n+]2[O-] | 580 nM
O=C(c1ccc2ccccc2c1)c1c(C(F)(F)F)[n+]([O-])c2cc(Cl)c(Cl)cc2[n+]1[O-] | 1640 nM
O=C(c1ccco1)c1c(C(F)(F)F)[n+]([O-])c2ccccc2[n+]1[O-] | 330 nM
O=C(c1ccccc1)c1c(C(F)(F)F)[n+]([O-])c2cc(C(F)(F)F)ccc2[n+]1[O-] | 1470 nM
O=C(c1ccccc1)c1c(C(F)(F)F)[n+]([O-])c2ccc(F)cc2[n+]1[O-] | 1140 nM
O=C(c1cccs1)c1c(C(F)(F)F)[n+]([O-])c2ccc(F)cc2[n+]1[O-] | 1650 nM
O=C(c1ccco1)c1c(C(F)(F)F)nc2ccc(C(F)(F)F)cc2[n+]1[O-] | 28600 nM
O=C(c1ccco1)c1c(C(F)(F)F)[n+]([O-])c2cc(Cl)c(Cl)cc2[n+]1[O-] | 310 nM

Test: Anticancer activity against prostate cancer cells
Format: functional
Conditions: Homo sapiens, Cancer cell lines

Compound | GI50
Cc1ccc2c(c1)[n+]([O-])c(C(=O)c1ccco1)c(C(F)(F)F)[n+]2[O-] | 240 nM
O=C(c1ccc2ccccc2c1)c1c(C(F)(F)F)[n+]([O-])c2cc(Cl)c(Cl)cc2[n+]1[O-] | 1550 nM
O=C(c1ccco1)c1c(C(F)(F)F)[n+]([O-])c2ccccc2[n+]1[O-] | 200 nM
O=C(c1ccccc1)c1c(C(F)(F)F)[n+]([O-])c2cc(C(F)(F)F)ccc2[n+]1[O-] | 1320 nM
O=C(c1ccccc1)c1c(C(F)(F)F)[n+]([O-])c2ccc(F)cc2[n+]1[O-] | 530 nM
O=C(c1cccs1)c1c(C(F)(F)F)[n+]([O-])c2ccc(F)cc2[n+]1[O-] | 1510 nM
O=C(c1ccco1)c1c(C(F)(F)F)nc2ccc(C(F)(F)F)cc2[n+]1[O-] | 38500 nM
O=C(c1ccco1)c1c(C(F)(F)F)[n+]([O-])c2cc(Cl)c(Cl)cc2[n+]1[O-] | 330 nM

Test: Anticancer activity against breast cancer cells
Format: functional
Conditions: Homo sapiens, Cancer cell lines

Compound | GI50
Cc1ccc2c(c1)[n+]([O-])c(C(=O)c1ccco1)c(C(F)(F)F)[n+]2[O-] | 660 nM
O=C(c1ccc2ccccc2c1)c1c(C(F)(F)F)[n+]([O-])c2cc(Cl)c(Cl)cc2[n+]1[O-] | 1620 nM
O=C(c1ccco1)c1c(C(F)(F)F)[n+]([O-])c2ccccc2[n+]1[O-] | 760 nM
O=C(c1ccccc1)c1c(C(F)(F)F)[n+]([O-])c2cc(C(F)(F)F)ccc2[n+]1[O-] | 1410 nM
O=C(c1ccccc1)c1c(C(F)(F)F)[n+]([O-])c2ccc(F)cc2[n+]1[O-] | 730 nM
O=C(c1cccs1)c1c(C(F)(F)F)[n+]([O-])c2ccc(F)cc2[n+]1[O-] | 1190 nM
O=C(c1ccco1)c1c(C(F)(F)F)nc2ccc(C(F)(F)F)cc2[n+]1[O-] | 34300 nM
O=C(c1ccco1)c1c(C(F)(F)F)[n+]([O-])c2cc(Cl)c(Cl)cc2[n+]1[O-] | 1380 nM

Test: Anticancer activity against human NCI60 cells
Format: functional
Conditions: not given

Compound | GI50 | TGI
Cc1ccc2c(c1)[n+]([O-])c(C(=O)c1ccco1)c(C(F)(F)F)[n+]2[O-] | 660 nM | 3470 nM
O=C(c1ccc2ccccc2c1)c1c(C(F)(F)F)[n+]([O-])c2cc(Cl)c(Cl)cc2[n+]1[O-] | 1580 nM | 3160 nM
O=C(c1ccco1)c1c(C(F)(F)F)[n+]([O-])c2ccccc2[n+]1[O-] | 410 nM | 5130 nM
O=C(c1ccccc1)c1c(C(F)(F)F)[n+]([O-])c2cc(C(F)(F)F)ccc2[n+]1[O-] | 1290 nM | 2950 nM
O=C(c1ccccc1)c1c(C(F)(F)F)[n+]([O-])c2ccc(F)cc2[n+]1[O-] | 780 nM | 2510 nM
O=C(c1cccs1)c1c(C(F)(F)F)[n+]([O-])c2ccc(F)cc2[n+]1[O-] | 1200 nM | 2880 nM
O=C(c1ccco1)c1c(C(F)(F)F)nc2ccc(C(F)(F)F)cc2[n+]1[O-] | 37200 nM | 83200 nM
O=C(c1ccco1)c1c(C(F)(F)F)[n+]([O-])c2cc(Cl)c(Cl)cc2[n+]1[O-] | 630 nM | 3090 nM

Same assay, conditions: read-out: LC50 (the source's name)

Compound | CC50
Cc1ccc2c(c1)[n+]([O-])c(C(=O)c1ccco1)c(C(F)(F)F)[n+]2[O-] | 17800 nM
O=C(c1ccc2ccccc2c1)c1c(C(F)(F)F)[n+]([O-])c2cc(Cl)c(Cl)cc2[n+]1[O-] | 6170 nM
O=C(c1ccco1)c1c(C(F)(F)F)[n+]([O-])c2ccccc2[n+]1[O-] | 26900 nM
O=C(c1ccccc1)c1c(C(F)(F)F)[n+]([O-])c2cc(C(F)(F)F)ccc2[n+]1[O-] | 8320 nM
O=C(c1ccccc1)c1c(C(F)(F)F)[n+]([O-])c2ccc(F)cc2[n+]1[O-] | 9120 nM
O=C(c1cccs1)c1c(C(F)(F)F)[n+]([O-])c2ccc(F)cc2[n+]1[O-] | 9330 nM
O=C(c1ccco1)c1c(C(F)(F)F)nc2ccc(C(F)(F)F)cc2[n+]1[O-] | > 100000 nM
O=C(c1ccco1)c1c(C(F)(F)F)[n+]([O-])c2cc(Cl)c(Cl)cc2[n+]1[O-] | 11000 nM
